pIC50: −log10 of the molar value.
Columns and labels:
Experiment in all cases: cells
HCC1569 = format: functional, cell-based, Homo sapiens; settings: Homo sapiens, HCC1569;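 also: growth inhibition of human HCC1569 cells, read out with a cell viability assay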
Description: SANGER: Inhibition of human HCC1569 cell growth in a cell viability assay.

Ramos-2G6-4C10 = format: functional, cell-based; settings: Homo sapiens;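 also: growth inhibition of the cell line, measured by a cell viability read-out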
Description: SANGER: Inhibition of human Ramos-2G6-4C10 cell growth in a cell viability assay.

NCI-H1437 = format: functional, cell-based, Homo sapiens; settings: Homo sapiens, NCI-H1437;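 also: growth inhibition of human NCI-H1437 cells, read out by a cell viability assay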
Description: SANGER: Inhibition of human NCI-H1437 cell growth in a cell viability assay.

HCC 2998 = format: functional, cell-based, Homo sapiens; settings: Homo sapiens, HCC 2998;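 also: growth inhibition of human HCC2998 cells, measured with a cell viability read-out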
Description: SANGER: Inhibition of human HCC2998 cell growth in a cell viability assay.

LU-139 = format: functional, cell-based; settings: Homo sapiens
Description: SANGER: Inhibition of human LU-139 cell growth in a cell viability assay.

ME-180 = format: functional, cell-based; settings: Homo sapiens;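 also: cell viability assay measuring growth inhibition of ME-180 cells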
Description: SANGER: Inhibition of human ME-180 cell growth in a cell viability assay.

BFTC-909 = format: functional, cell-based, Homo sapiens; settings: Homo sapiens, BFTC-909
Description: SANGER: Inhibition of human BFTC-909 cell growth in a cell viability assay.

JAR = format: functional, cell-based, Homo sapiens; settings: Homo sapiens, JAR;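 also: growth inhibition of human JAR cells determined with a cell viability assay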
Description: SANGER: Inhibition of human JAR cell growth in a cell viability assay.

SNU-5 = format: functional, cell-based; settings: Homo sapiens;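 also: cell viability readout used to measure growth inhibition in human NCI-SNU-5 cells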
Description: SANGER: Inhibition of human NCI-SNU-5 cell growth in a cell viability assay.

RCM-1 = format: functional, cell-based, Homo sapiens; settings: Homo sapiens, RCM-1;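 also: growth inhibition of the RCM-1 line, determined with a cell viability readout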
Description: SANGER: Inhibition of human RCM-1 cell growth in a cell viability assay.

COLO-741 = format: functional, cell-based, Homo sapiens; settings: Homo sapiens, COLO-741
Description: SANGER: Inhibition of human COLO-741 cell growth in a cell viability assay.

SF-268 = format: functional, cell-based, Homo sapiens; settings: Homo sapiens, SF-268;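 also: growth inhibition of SF-268 cells determined with a cell viability assay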
Description: SANGER: Inhibition of human SF268 cell growth in a cell viability assay.

RPMI-8226 = format: functional, cell-based; settings: Homo sapiens
Description: SANGER: Inhibition of human RPMI-8226 cell growth in a cell viability assay.

G-402 = format: functional, cell-based, Homo sapiens; settings: Homo sapiens, G-402
Description: SANGER: Inhibition of human G-402 cell growth in a cell viability assay.

J82 = format: functional, cell-based; settings: Homo sapiens;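 also: growth inhibition of J82 cells, read out with a cell viability assay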
Description: SANGER: Inhibition of human J82 cell growth in a cell viability assay.

HTC-C3 = format: functional, cell-based, Homo sapiens; settings: Homo sapiens, HTC-C3;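 also: inhibition of cell growth, read out with a cell viability assay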
Description: SANGER: Inhibition of human HTC-C3 cell growth in a cell viability assay.

ES4 = format: functional, cell-based, Homo sapiens; settings: Homo sapiens, ES4;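 also: growth inhibition of human ES4 cells, read out by a cell viability assay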
Description: SANGER: Inhibition of human ES4 cell growth in a cell viability assay.

A-375 = format: functional, cell-based, Homo sapiens; settings: Homo sapiens, A-375;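 also: growth inhibition of A375 cells, read out with a cell viability assay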
Description: SANGER: Inhibition of human A375 cell growth in a cell viability assay.

SNU1 = format: functional, cell-based; settings: Homo sapiens;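 also: growth inhibition of human NCI-SNU-1 cells, measured with a cell viability assay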
Description: SANGER: Inhibition of human NCI-SNU-1 cell growth in a cell viability assay.

ACHN = format: functional, cell-based, Homo sapiens; settings: Homo sapiens, ACHN;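 also: cell viability read-out used to gauge how strongly growth of human ACHN cells is suppressed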
Description: SANGER: Inhibition of human ACHN cell growth in a cell viability assay.

CP66-MEL = format: functional, cell-based, Homo sapiens; settings: Homo sapiens, CP66-MEL;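 also: growth inhibition of CP66-MEL cells determined in a cell viability assay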
Description: SANGER: Inhibition of human CP66-MEL cell growth in a cell viability assay.

SW780 = format: functional, cell-based, Homo sapiens; settings: Homo sapiens, SW780;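 also: growth inhibition of the cells, read out with a cell viability assay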
Description: SANGER: Inhibition of human SW780 cell growth in a cell viability assay.

MEG-01 = format: functional, cell-based; settings: Homo sapiens;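 also: growth inhibition of MEG-01 cells, read out by a cell viability assay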
Description: SANGER: Inhibition of human MEG-01 cell growth in a cell viability assay.

MOLT-4 = format: functional, cell-based; settings: Homo sapiens;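 also: growth inhibition of MOLT-4 cells, determined with a cell viability readout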
Description: SANGER: Inhibition of human MOLT-4 cell growth in a cell viability assay.

VA-ES-BJ = format: functional, cell-based, Homo sapiens; settings: Homo sapiens, VA-ES-BJ;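 also: growth inhibition of the VA-ES-BJ cell line, read out by a cell viability assay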
Description: SANGER: Inhibition of human VA-ES-BJ cell growth in a cell viability assay.

MFH-ino = format: functional, cell-based; settings: Homo sapiens;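 also: growth inhibition of human MFH-ino cells, read out by a cell viability assay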
Description: SANGER: Inhibition of human MFH-ino cell growth in a cell viability assay.

NCI-H441 = format: functional, cell-based; settings: Homo sapiens;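 also: growth inhibition of NCI-H441 cells, read out with a cell viability assay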
Description: SANGER: Inhibition of human NCI-H441 cell growth in a cell viability assay.

LXF-289 cell line = format: functional, cell-based, Homo sapiens; settings: Homo sapiens, LXF-289
Description: SANGER: Inhibition of human LXF-289 cell growth in a cell viability assay.

HD-MY-Z = format: functional, cell-based, Homo sapiens; settings: Homo sapiens, HD-MY-Z;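 also: growth inhibition of HD-MY-Z cells, read out with a cell viability assay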
Description: SANGER: Inhibition of human HD-MY-Z cell growth in a cell viability assay.

CAKI-1 = format: functional, cell-based, Homo sapiens; settings: Homo sapiens, CAKI-1;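 also: growth inhibition of CAKI-1 cells, measured by a cell viability assay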
Description: SANGER: Inhibition of human CAKI-1 cell growth in a cell viability assay.

639-V = format: functional, cell-based, Homo sapiens; settings: Homo sapiens, 639-V;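 also: growth inhibition of 639-V cells, read out with a cell viability assay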
Description: SANGER: Inhibition of human 639-V cell growth in a cell viability assay.

CW-2 = format: functional, cell-based, Homo sapiens; settings: Homo sapiens, CW-2;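 also: growth inhibition of CW-2 cells, read out by a cell viability assay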
Description: SANGER: Inhibition of human CW-2 cell growth in a cell viability assay.

RMG-I = format: functional, cell-based, Homo sapiens; settings: Homo sapiens, RMG-I;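 also: growth inhibition of human RMG-I cells, read out with a cell viability assay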
Description: SANGER: Inhibition of human RMG-I cell growth in a cell viability assay.

MIA PaCa-2 = format: functional, cell-based, Homo sapiens; settings: Homo sapiens, MIA PaCa-2;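 also: growth inhibition of MIA PaCa-2 cells, read out with a cell viability assay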
Description: SANGER: Inhibition of human MIA-PaCa-2 cell growth in a cell viability assay.

T47D = format: functional, cell-based, Homo sapiens; settings: Homo sapiens, T47D;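 also: growth inhibition of human T47D cells, measured with a cell viability assay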
Description: SANGER: Inhibition of human T47D cell growth in a cell viability assay.

U-118-MG = format: functional, cell-based, Homo sapiens; settings: Homo sapiens, U-118-MG
Description: SANGER: Inhibition of human U-118-MG cell growth in a cell viability assay.

KYSE-150 cell line = format: functional, cell-based, Homo sapiens; settings: Homo sapiens, KYSE-150;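 also: growth inhibition of human KYSE-150 cells, read out with a cell viability assay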
Description: SANGER: Inhibition of human KYSE-150 cell growth in a cell viability assay.

NOS-1 = format: functional, cell-based, Homo sapiens; settings: Homo sapiens, NOS-1;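 also: growth inhibition of the human NOS-1 cell line, read out with a cell viability assay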
Description: SANGER: Inhibition of human NOS-1 cell growth in a cell viability assay.

HCC2218 = format: functional, cell-based; settings: Homo sapiens;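 also: cell viability assay read-out, with IC50 given as the concentration that inhibits growth of the cell line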
Description: SANGER: Inhibition of human HCC2218 cell growth in a cell viability assay.

NCI-H510A = format: functional, cell-based; settings: Homo sapiens;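 also: growth inhibition of NCI-H510A cells, read out with a cell viability assay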
Description: SANGER: Inhibition of human NCI-H510A cell growth in a cell viability assay.

IGR-1 = format: functional, cell-based, Homo sapiens; settings: Homo sapiens, IGR-1;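 also: growth inhibition of human IGR-1 cells, read out with a cell viability assay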
Description: SANGER: Inhibition of human IGR-1 cell growth in a cell viability assay.

SW48 = format: functional, cell-based, Homo sapiens; settings: Homo sapiens, SW48;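 also: growth inhibition of SW48 cells, read out with a cell viability assay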
Description: SANGER: Inhibition of human SW48 cell growth in a cell viability assay.

BPH-1 = format: functional, cell-based, Homo sapiens; settings: Homo sapiens, BPH-1;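 also: cell viability assay measuring growth inhibition of human BPH-1 cells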
Description: SANGER: Inhibition of human BPH-1 cell growth in a cell viability assay.

SW1990 = format: functional, cell-based, Homo sapiens; settings: Homo sapiens, SW1990;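 also: cell growth inhibition determined with a viability assay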
Description: SANGER: Inhibition of human SW1990 cell growth in a cell viability assay.

EFO-21 = format: functional, cell-based, Homo sapiens; settings: Homo sapiens, EFO-21;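 also: growth inhibition of EFO-21 cells measured with a viability assay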
Description: SANGER: Inhibition of human EFO-21 cell growth in a cell viability assay.

MDA-MB-175-VII = format: functional, cell-based, Homo sapiens; settings: Homo sapiens, MDA-MB-175-VII
PA-1 = format: functional, cell-based, Homo sapiens; settings: Homo sapiens, PA-1;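 also: IC50 for suppression of PA-1 cell proliferation, determined with a cell viability read-out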
Description: SANGER: Inhibition of human PA-1 cell growth in a cell viability assay.

NCI-H520 = format: functional, cell-based, Homo sapiens; settings: Homo sapiens, NCI-H520;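 also: growth inhibition of NCI-H520 cells, measured by a cell viability assay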
Description: SANGER: Inhibition of human NCI-H520 cell growth in a cell viability assay.

COLO-684 = format: functional, cell-based; settings: Homo sapiens
Description: SANGER: Inhibition of human COLO-684 cell growth in a cell viability assay.

HOP-92 = format: functional, cell-based, Homo sapiens; settings: Homo sapiens, HOP-92;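 also: cell viability readout, with IC50 reflecting inhibition of HOP-92 cell growth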
Description: SANGER: Inhibition of human HOP-92 cell growth in a cell viability assay.

NCI-H446 = format: functional, cell-based; settings: Homo sapiens;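 also: growth inhibition of NCI-H446 cells determined by a cell viability assay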
Description: SANGER: Inhibition of human NCI-H446 cell growth in a cell viability assay.

T98G = format: functional, cell-based, Homo sapiens; settings: Homo sapiens, T98G;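 also: growth inhibition of T98G cells, read out by a cell viability assay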
Description: SANGER: Inhibition of human T98G cell growth in a cell viability assay.

Structure (SMILES): CCC1=C[C@@H]2CN(C1)Cc1c([nH]c3ccccc13)[C@@](C(=O)OC)(c1cc3c(cc1OC)N(C)[C@H]1[C@@](O)(C(=O)OC)[C@H](OC(C)=O)[C@]4(CC)C=CCN5CC[C@]31[C@@H]54)C2 [VINORELBINE]
- pIC50 (HCC1569): 8.31
- pIC50 (Ramos-2G6-4C10): 8.35
- pIC50 (NCI-H1437): 8.15
- pIC50 (HCC 2998): 8.30
- pIC50 (LU-139): 7.28
- pIC50 (ME-180): 7.68
- pIC50 (BFTC-909): 7.97
- pIC50 (JAR): < 7.19
- pIC50 (SNU-5): 7.34
- pIC50 (RCM-1): < 7.19
- pIC50 (COLO-741): 7.45
- pIC50 (SF-268): 7.79
- pIC50 (RPMI-8226): 7.77
- pIC50 (G-402): 7.49
- pIC50 (J82): < 7.19
- pIC50 (HTC-C3): 7.58
- pIC50 (ES4): < 7.19
- pIC50 (A-375): 7.42
- pIC50 (SNU1): 7.48
- pIC50 (ACHN): 7.34
- pIC50 (CP66-MEL): 7.35
- pIC50 (SW780): 7.83
- pIC50 (MEG-01): 7.68
- pIC50 (MOLT-4): 8.18
- pIC50 (VA-ES-BJ): 8.37
- pIC50 (MFH-ino): 8.25
- pIC50 (NCI-H441): 7.48
- pIC50 (LXF-289 cell line): 8.33
- pIC50 (HD-MY-Z): 7.53
- pIC50 (CAKI-1): < 7.19
- pIC50 (639-V): 8.18
- pIC50 (CW-2): < 7.19
- pIC50 (RMG-I): < 7.19
- pIC50 (MIA PaCa-2): 8.23
- pIC50 (T47D): < 7.19
- pIC50 (U-118-MG): < 7.19
- pIC50 (KYSE-150 cell line): 8.52
- pIC50 (NOS-1): 7.38
- pIC50 (HCC2218): 7.24
- pIC50 (NCI-H510A): 7.81
- pIC50 (IGR-1): 8.72
- pIC50 (SW48): 8.24
- pIC50 (BPH-1): 8.72
- pIC50 (SW1990): < 7.19
- pIC50 (EFO-21): 7.66
- pIC50 (MDA-MB-175-VII): < 7.19
- pIC50 (PA-1): 8.51
- pIC50 (NCI-H520): 8.73
- pIC50 (COLO-684): 7.86
- pIC50 (HOP-92): 7.29
- pIC50 (NCI-H446): 7.83
- pIC50 (T98G): 7.72

— ChEMBL document CHEMBL1201861, “Genomics of Drug Sensitity in Cancer screening data, Wellcome Trust Sanger Institute”
